Reference: PubChem BioAssay AID256 (DTP/NCI, 2004)
Values joined by “and” are separate entries in the source; they are usually repeats but may differ in a detail not shown here. Equal values may be shown once. Inconclusive results and toxic doses are left out. How the source made its calls: active means survival T/C of 150% or more; inactive means T/C below 125% in these data.

Test system: CD2F1 mice, L1210 leukemia ip, survival T/C
Experiment: NCI In Vivo Anticancer Drug Screen. Data for tumor model L1210 Leukemia (intraperitoneal) in CD2F1 (CDF1) mice
Conditions: higher = longer survival
Summary of the method: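 In this screen, transplantable tumors were grown in mice given either the compound or its vehicle. Results were expressed as the treated measurement relative to the control measurement.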

[1] = endpoint: mean survival time, dose: 100.0 mg/kg/injection, schedule: Q04DX002 (ip), vehicle: saline with Tween-80
[2] = endpoint: mean survival time, dose: 200.0 mg/kg/injection, schedule: Q04DX002 (ip), vehicle: saline with Tween-80
[3] = endpoint: mean survival time, dose: 400.0 mg/kg/injection, schedule: Q04DX002 (ip), vehicle: saline with Tween-80
[4] = endpoint: mean survival time, dose: 100.0 mg/kg/injection, schedule: Q01DX009 (ip), vehicle: saline with Tween-80
[5] = endpoint: mean survival time, dose: 100.0 mg/kg/injection, schedule: Q04DX003 (ip), vehicle: saline with Tween-80
[6] = endpoint: mean survival time, dose: 200.0 mg/kg/injection, schedule: Q01DX009 (ip), vehicle: saline with Tween-80
[7] = endpoint: mean survival time, dose: 200.0 mg/kg/injection, schedule: Q04DX003 (ip), vehicle: saline with Tween-80
[8] = endpoint: mean survival time, dose: 400.0 mg/kg/injection, schedule: Q01DX009 (ip), vehicle: saline with Tween-80
[9] = endpoint: mean survival time, dose: 400.0 mg/kg/injection, schedule: Q04DX003 (ip), vehicle: saline with Tween-80
[10] = endpoint: mean survival time, dose: 50.0 mg/kg/injection, schedule: Q04DX003 (ip), vehicle: saline with Tween-80
[11] = endpoint: mean survival time, dose: 100.0 mg/kg/injection, schedule: Q01DX001 (ip), vehicle: saline with Tween-80
[12] = endpoint: mean survival time, dose: 200.0 mg/kg/injection, schedule: Q01DX001 (ip), vehicle: saline with Tween-80
[13] = endpoint: mean survival time, dose: 400.0 mg/kg/injection, schedule: Q01DX001 (ip), vehicle: saline with Tween-80

Measured: T/C

C#CC(C)(C)OC(O)C(Cl)(Cl)Cl (centres undefined)
inactive: [1] 91 % of control | [2] 91 % of control | [3] 106 % of control

COC(=O)C(F)C(Br)C(=O)OC (centres undefined)
inactive: endpoint: mean survival time, dose: 3.12 mg/kg/injection, schedule: Q01DX009 (ip), vehicle: saline with Tween-80 108 % of control | endpoint: mean survival time, dose: 6.25 mg/kg/injection, schedule: Q01DX009 (ip), vehicle: saline with Tween-80 97 % of control | endpoint: mean survival time, dose: 12.5 mg/kg/injection, schedule: Q01DX009 (ip), vehicle: saline with Tween-80 107 % of control | endpoint: mean survival time, dose: 25.0 mg/kg/injection, schedule: Q01DX009 (ip), vehicle: saline with Tween-80 105 % of control | endpoint: mean survival time, dose: 50.0 mg/kg/injection, schedule: Q01DX009 (ip), vehicle: saline with Tween-80 108 % of control

O=C(OC1C(COP(=O)(Oc2ccccc2)Oc2ccccc2)OC(n2nc(SCc3ccccc3)c(=O)[nH]c2=O)C1OC(=O)c1ccccc1)c1ccccc1 (centres undefined)
inactive: endpoint: median survival time, dose: 12.5 mg/kg/injection, schedule: Q01DX005 (ip), vehicle: distilled water + Tween-80 96 % of control | endpoint: median survival time, dose: 25.0 mg/kg/injection, schedule: Q01DX005 (ip), vehicle: distilled water + Tween-80 96 % of control | endpoint: median survival time, dose: 50.0 mg/kg/injection, schedule: Q01DX005 (ip), vehicle: distilled water + Tween-80 97 % of control | endpoint: median survival time, dose: 100.0 mg/kg/injection, schedule: Q01DX005 (ip), vehicle: distilled water + Tween-80 97 % of control | endpoint: median survival time, dose: 200.0 mg/kg/injection, schedule: Q01DX005 (ip), vehicle: distilled water + Tween-80 96 % of control

CC1(C)CC(C)(c2ccc(O)cc2)c2ccccc2O1 (centres undefined)
inactive: [4] 90 % of control | [5] 92 % of control | [6] 92 % of control | [7] 92 % of control | [8] 91 % of control | [9] 90 % of control

COc1ccc2nc3c(C)c4ccn(O)cc4c(C)c3c2c1
inactive: endpoint: mean survival time, dose: 25.0 mg/kg/injection, schedule: Q04DX003 (ip), vehicle: water 106 % of control | endpoint: mean survival time, dose: 50.0 mg/kg/injection, schedule: Q04DX003 (ip), vehicle: water 111 % of control | endpoint: mean survival time, dose: 100.0 mg/kg/injection, schedule: Q04DX003 (ip), vehicle: water 114 % of control | endpoint: mean survival time, dose: 178.0 mg/kg/injection, schedule: Q04DX003 (ip), vehicle: other 105 % of control | endpoint: mean survival time, dose: 266.0 mg/kg/injection, schedule: Q04DX003 (ip), vehicle: other 103 % of control | endpoint: mean survival time, dose: 400.0 mg/kg/injection, schedule: Q04DX003 (ip), vehicle: other 102 % of control | endpoint: mean survival time, dose: 600.0 mg/kg/injection, schedule: Q04DX003 (ip), vehicle: other 103 % of control

O=C(COc1ccccc1)N/N=C/c1ccccc1O
inactive: [4] 92 % of control

CS(C)=O.O=C([O-])CC(=O)[O-].[NH-]CC(O)CN(Cc1ccccc1)CC(O)CN.[Pt+4] (centres undefined)
inactive: endpoint: median survival time, dose: 10.0 mg/kg/injection, schedule: Q04DX003 (ip), vehicle: water 107 % of control | endpoint: median survival time, dose: 20.0 mg/kg/injection, schedule: Q04DX003 (ip), vehicle: water 104 % of control | endpoint: median survival time, dose: 40.0 mg/kg/injection, schedule: Q04DX003 (ip), vehicle: water 104 % of control | endpoint: median survival time, dose: 50.0 mg/kg/injection, schedule: Q04DX003 (ip), vehicle: water 100 % of control | endpoint: median survival time, dose: 80.0 mg/kg/injection, schedule: Q04DX003 (ip), vehicle: water 108 % of control | endpoint: median survival time, dose: 100.0 mg/kg/injection, schedule: Q04DX003 (ip), vehicle: water 104 % of control | endpoint: median survival time, dose: 200.0 mg/kg/injection, schedule: Q04DX003 (ip), vehicle: water 117 % of control and 110 % of control | endpoint: median survival time, dose: 400.0 mg/kg/injection, schedule: Q04DX003 (ip), vehicle: water 114 % of control

Nc1nc[nH]c(=O)c1NC(=O)c1cccc([N+](=O)[O-])c1
inactive: [10] 101 % of control and 111 % of control | [1] 96 % of control and 109 % of control | [2] 92 % of control and 104 % of control | [3] 114 % of control and 96 % of control

CC1(C)CC(NC2=NCCO2)CC(C)(C)N1
inactive: endpoint: mean survival time, dose: 6.25 mg/kg/injection, schedule: Q01DX001 (ip), vehicle: saline 94 % of control | endpoint: mean survival time, dose: 6.25 mg/kg/injection, schedule: Q01DX009 (ip), vehicle: saline 101 % of control | endpoint: mean survival time, dose: 12.5 mg/kg/injection, schedule: Q01DX001 (ip), vehicle: saline 97 % of control | endpoint: mean survival time, dose: 12.5 mg/kg/injection, schedule: Q01DX009 (ip), vehicle: saline 98 % of control | endpoint: mean survival time, dose: 25.0 mg/kg/injection, schedule: Q01DX001 (ip), vehicle: saline 90 % of control | endpoint: mean survival time, dose: 25.0 mg/kg/injection, schedule: Q01DX009 (ip), vehicle: saline 96 % of control

CCCCP(=O)(O)O
inactive: [11] 92 % of control | [12] 100 % of control

Cc1nc(N)[nH]c(=O)c1NC(=O)c1ccccc1N
inactive: [11] 94 % of control | [12] 87 % of control | [13] 89 % of control

CCOC(=O)c1ccc(N)c(C(O)(C(F)(F)F)C(F)(F)F)c1
inactive: [5] 103 % of control | [7] 97 % of control | [9] 97 % of control

CCC1C(=O)NC(=O)NC1=O
inactive: [4] 96 % of control | [5] 98 % of control | [6] 94 % of control | [7] 94 % of control | [8] 93 % of control | [9] 96 % of control

O=C(O)/C=C/c1ccc(Cl)cc1Cl
inactive: [5] 95 % of control | [7] 95 % of control | [9] 86 % of control

CCOC(=O)N(C)CC1C(=O)Nc2ccccc21 (centres undefined)
inactive: endpoint: mean survival time, dose: 100.0 mg/kg/injection, schedule: Q04DX003 (ip), vehicle: Klucel (hydroxypropylcellulose) (HPC) 105 % of control | endpoint: mean survival time, dose: 200.0 mg/kg/injection, schedule: Q04DX003 (ip), vehicle: Klucel (hydroxypropylcellulose) (HPC) 110 % of control | endpoint: mean survival time, dose: 400.0 mg/kg/injection, schedule: Q04DX003 (ip), vehicle: Klucel (hydroxypropylcellulose) (HPC) 102 % of control

CCOC(=O)C(C)CN(CC(C)C(=O)OCC)C(C)(C)C (centres undefined)
inactive: [11] 112 % of control | [12] 100 % of control

CO[C@]12[C@@H](COC(N)=O)C3=C(C(=O)C(C)=C(NCc4ccco4)C3=O)N1C[C@@H]1[C@H]2N1C (some centres undefined)
inactive: endpoint: mean survival time, dose: 1.5 mg/kg/injection, schedule: Q01DX001 (ip), vehicle: distilled water + Tween-80 104 % of control | endpoint: mean survival time, dose: 3.0 mg/kg/injection, schedule: Q01DX001 (ip), vehicle: distilled water + Tween-80 103 % of control and 104 % of control | endpoint: mean survival time, dose: 6.0 mg/kg/injection, schedule: Q01DX001 (ip), vehicle: distilled water + Tween-80 110 % of control and 111 % of control | endpoint: mean survival time, dose: 12.0 mg/kg/injection, schedule: Q01DX001 (ip), vehicle: distilled water + Tween-80 122 % of control | endpoint: mean survival time, dose: 36.0 mg/kg/injection, schedule: Q01DX001 (ip), vehicle: distilled water + Tween-80 121 % of control

CC(=O)Nc1cccc(C(C)=O)c1[N+](=O)[O-]
inactive: [4] 102 % of control | [6] 97 % of control | [8] 93 % of control

CN(C)c1cc(C(C)(C)C)nc(C(C)(C)C)c1
inactive: endpoint: mean survival time, dose: 12.5 mg/kg/injection, schedule: Q04DX002 (ip), vehicle: saline 111 % of control | endpoint: mean survival time, dose: 25.0 mg/kg/injection, schedule: Q04DX002 (ip), vehicle: saline with Tween-80 98 % of control | endpoint: mean survival time, dose: 25.0 mg/kg/injection, schedule: Q04DX002 (ip), vehicle: saline 118 % of control | endpoint: mean survival time, dose: 50.0 mg/kg/injection, schedule: Q04DX002 (ip), vehicle: saline with Tween-80 95 % of control | endpoint: mean survival time, dose: 50.0 mg/kg/injection, schedule: Q04DX002 (ip), vehicle: saline 100 % of control | [1] 95 % of control

CC1(C)N=C(N)N=C(N)N1c1ccc(/C=C/C(=O)Nc2cccc(S(=O)(=O)F)c2)cc1
inactive: [11] 89 % of control | [12] 95 % of control | [13] 92 % of control

CCOC(=O)C(=O)O
inactive: endpoint: mean survival time, dose: 200.0 mg/kg/injection, schedule: Q01DX009 (ip), vehicle: saline 104 % of control

CC1CCC2CCCCC2[N-]1.CC1CCC2CCCCC2[N-]1.[Cl][Pt+2][Cl] (centres undefined)
inactive: endpoint: mean survival time, dose: 25.0 mg/kg/injection, schedule: Q04DX003 (ip), vehicle: saline with Tween-80 96 % of control | [10] 94 % of control | [5] 94 % of control | [9] 88 % of control

NP(=O)(OC(c1ccccc1)C12CC3CC(CC(C3)C1)C2)N(CCCl)CCCl (centres undefined)
inactive: endpoint: mean survival time, dose: 62.5 mg/kg/injection, schedule: Q01DX001 (ip), vehicle: other 92 % of control | endpoint: mean survival time, dose: 125.0 mg/kg/injection, schedule: Q01DX001 (ip), vehicle: other 97 % of control | endpoint: mean survival time, dose: 250.0 mg/kg/injection, schedule: Q01DX001 (ip), vehicle: other 102 % of control | endpoint: mean survival time, dose: 500.0 mg/kg/injection, schedule: Q01DX001 (ip), vehicle: other 105 % of control

CC(C)CCOC(=O)Nc1cccc(O)c1
inactive: [5] 98 % of control | [7] 100 % of control | [9] 101 % of control

O=C(c1ccc(-c2ccccc2)cc1)C1CCCCC1
inactive: [4] 94 % of control | [6] 97 % of control | [8] 86 % of control
